Test system in one experiment: not listed separately
Put plainly: DRUGMATRIX: Imidazoline I2, Central radioligand binding (ligand: [3H] Idazoxan). Format: cell membranes, Rattus norvegicus, Wistar, Cerebral cortex, Membrane. As to conditions: Not Active = under 50% inhibition at 10 µM.
Turning to `CC(C)NCC(O)COc1cccc2[nH]ccc12` (stereo not drawn) [PINDOLOL], the IC50 entry is reported as “Not Active” and the Ki entry is “Not Active”.
For the compound `CCn1cc(C(=O)O)c(=O)c2cnc(N3CCCC3)nc21` [PIROMIDIC ACID], the IC50 entry is listed as “Not Active” and the Ki result is on record as “Not Active”.
In the case of `C[n+]1ccccc1/C=N/O.[Cl-]` [PRALIDOXIME CHLORIDE], the IC50 entry is “Not Active” and the Ki result is recorded as “Not Active”.
For the compound `C[C@]12C=CC(=O)C=C1CC[C@@H]1[C@@H]2[C@@H](O)C[C@@]2(C)[C@H]1CC[C@]2(O)C(=O)CO` [PREDNISOLONE], the IC50 result was “Not Active” and the Ki entry is “Not Active”.
Consider `CC(=O)[C@H]1[C@H](C#N)C[C@H]2[C@@H]3CC=C4C[C@@H](O)CC[C@]4(C)[C@H]3CC[C@@]21C` [PREGNENOLONE CARBONITRILE], for which the IC50 result is recorded as “Not Active” and the Ki entry is “Not Active”.
In the case of `CCCN(CCC)S(=O)(=O)c1ccc(C(=O)O)cc1` [PROBENECID], the IC50 entry was “Not Active” and the Ki result is recorded as “Not Active”.
Turning to `CCCNCC(O)COc1ccccc1C(=O)CCc1ccccc1` (stereo not drawn) [PROPAFENONE], the IC50 result is “Not Active” and the Ki result was “Not Active”.
As for `CCCOc1ccc(C(=O)OCCN(CC)CC)cc1N` [PROPARACAINE], the IC50 result is “Not Active” and the Ki result was “Not Active”.

In a further experiment the target is 5-hydroxytryptamine receptor 4 (Cavia porcellus, UniProt O70528). Further: in other assays of this panel Not Active means under 50% inhibition at 10 µM.
Chain of 5-hydroxytryptamine receptor 4 (O70528 whole entry): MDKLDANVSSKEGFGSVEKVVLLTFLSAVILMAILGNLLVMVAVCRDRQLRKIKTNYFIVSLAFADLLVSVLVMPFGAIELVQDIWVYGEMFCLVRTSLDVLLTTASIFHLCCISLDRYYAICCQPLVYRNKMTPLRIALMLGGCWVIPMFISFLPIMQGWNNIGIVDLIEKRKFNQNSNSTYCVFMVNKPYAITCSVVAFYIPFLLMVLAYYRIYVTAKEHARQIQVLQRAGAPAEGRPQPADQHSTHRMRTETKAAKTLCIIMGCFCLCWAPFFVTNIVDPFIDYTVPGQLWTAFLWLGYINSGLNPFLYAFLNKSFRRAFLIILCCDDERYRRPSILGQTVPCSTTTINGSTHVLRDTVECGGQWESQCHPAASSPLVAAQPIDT
Assay: not given
The experiment is classed as cell membranes, Dunkin-Hartley, Striatum, Membrane.
Conditions: not given
For `CC(C)NCC(O)COc1cccc2[nH]ccc12` (stereo not drawn) [PINDOLOL], the IC50 entry is on record as “Not Active”.
As for `CCn1cc(C(=O)O)c(=O)c2cnc(N3CCCC3)nc21` [PIROMIDIC ACID], the IC50 entry is recorded as “Not Active”.
Turning to `C[n+]1ccccc1/C=N/O.[Cl-]` [PRALIDOXIME CHLORIDE], the Ki result was “Not Active”.
For the compound `C[C@]12C=CC(=O)C=C1CC[C@@H]1[C@@H]2[C@@H](O)C[C@@]2(C)[C@H]1CC[C@]2(O)C(=O)CO` [PREDNISOLONE], the IC50 result is “Not Active”.
`CC(=O)[C@H]1[C@H](C#N)C[C@H]2[C@@H]3CC=C4C[C@@H](O)CC[C@]4(C)[C@H]3CC[C@@]21C` [PREGNENOLONE CARBONITRILE]: the IC50 result is “Not Active”.
Consider `CCCN(CCC)S(=O)(=O)c1ccc(C(=O)O)cc1` [PROBENECID], for which the IC50 entry is “Not Active”.
The same measure, in the same setting: the result for `CCCNCC(O)COc1ccccc1C(=O)CCc1ccccc1` (stereo not drawn) [PROPAFENONE] reads “Not Active”.
Still for that read-out and setting: the same measure for `CCCOc1ccc(C(=O)OCCN(CC)CC)cc1N` [PROPARACAINE]: “Not Active”.

The target in the next experiment is T1, Interstitial collagenase (Homo sapiens, UniProt P03956).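 Further: MMP-1 enzyme inhibition assay using a peptide substrate; in other assays of this panel Not Active means under 50% inhibition at 10 µM.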
T1 sequence (P03956 whole entry): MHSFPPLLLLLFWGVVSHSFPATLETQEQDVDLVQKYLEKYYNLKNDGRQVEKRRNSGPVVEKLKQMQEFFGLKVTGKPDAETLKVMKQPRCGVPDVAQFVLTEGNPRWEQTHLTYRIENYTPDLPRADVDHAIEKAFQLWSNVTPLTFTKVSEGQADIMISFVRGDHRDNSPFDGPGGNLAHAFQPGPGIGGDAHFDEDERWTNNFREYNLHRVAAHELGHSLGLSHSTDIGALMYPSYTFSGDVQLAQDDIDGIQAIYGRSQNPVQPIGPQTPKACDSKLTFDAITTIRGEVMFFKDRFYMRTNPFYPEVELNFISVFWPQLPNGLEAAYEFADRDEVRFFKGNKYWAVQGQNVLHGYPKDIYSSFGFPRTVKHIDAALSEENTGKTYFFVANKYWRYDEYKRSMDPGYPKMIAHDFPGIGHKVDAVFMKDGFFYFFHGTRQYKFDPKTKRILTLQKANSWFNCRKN
Put plainly: biochemical. Format: tissue-based, Rheumatoid synovial fibroblasts.
Conditions: not given
For `CC(C)NCC(O)COc1cccc2[nH]ccc12` (stereo not drawn) [PINDOLOL], the IC50 entry is given as “Not Active”.
Still for that read-out and setting: the same measure for `CCn1cc(C(=O)O)c(=O)c2cnc(N3CCCC3)nc21` [PIROMIDIC ACID]: “Not Active”.
As to `C[n+]1ccccc1/C=N/O.[Cl-]` [PRALIDOXIME CHLORIDE], the IC50 entry was “Not Active”.
For the compound `C[C@]12C=CC(=O)C=C1CC[C@@H]1[C@@H]2[C@@H](O)C[C@@]2(C)[C@H]1CC[C@]2(O)C(=O)CO` [PREDNISOLONE], the IC50 entry is reported as “Not Active”.
`CC(=O)[C@H]1[C@H](C#N)C[C@H]2[C@@H]3CC=C4C[C@@H](O)CC[C@]4(C)[C@H]3CC[C@@]21C` [PREGNENOLONE CARBONITRILE]: the IC50 result is “Not Active”.
For `CCCN(CCC)S(=O)(=O)c1ccc(C(=O)O)cc1` [PROBENECID], the IC50 entry is on record as “Not Active”.
Still for that read-out and setting: the same measure for `CCCNCC(O)COc1ccccc1C(=O)CCc1ccccc1` (stereo not drawn) [PROPAFENONE]: “Not Active”; for `CCCOc1ccc(C(=O)OCCN(CC)CC)cc1N` [PROPARACAINE]: “Not Active”.

Test system in a further experiment: not listed separately
Put plainly: DRUGMATRIX: Glutamate, AMPA radioligand binding (ligand: [3H] AMPA). The experiment is classed as cell membranes, Rattus norvegicus, Wistar, Cerebral cortex, Membrane. As to conditions: Not Active = under 50% inhibition at 10 µM.
For `CC(C)NCC(O)COc1cccc2[nH]ccc12` (stereo not drawn) [PINDOLOL], the IC50 result is given as “Not Active” and the Ki entry is “Not Active”.
Turning to `CCn1cc(C(=O)O)c(=O)c2cnc(N3CCCC3)nc21` [PIROMIDIC ACID], the IC50 entry is given as “Not Active” and the Ki entry is “Not Active”.
As for `C[n+]1ccccc1/C=N/O.[Cl-]` [PRALIDOXIME CHLORIDE], the IC50 entry is reported as “Not Active” and the Ki result is listed as “Not Active”.
As for `C[C@]12C=CC(=O)C=C1CC[C@@H]1[C@@H]2[C@@H](O)C[C@@]2(C)[C@H]1CC[C@]2(O)C(=O)CO` [PREDNISOLONE], the IC50 result is “Not Active” and the Ki entry is reported as “Not Active”.
`CC(=O)[C@H]1[C@H](C#N)C[C@H]2[C@@H]3CC=C4C[C@@H](O)CC[C@]4(C)[C@H]3CC[C@@]21C` [PREGNENOLONE CARBONITRILE]: the IC50 result is reported as “Not Active” and the Ki entry is given as “Not Active”.
In the case of `CCCN(CCC)S(=O)(=O)c1ccc(C(=O)O)cc1` [PROBENECID], the IC50 entry is on record as “Not Active” and the Ki entry is listed as “Not Active”.
On to `CCCNCC(O)COc1ccccc1C(=O)CCc1ccccc1` (stereo not drawn) [PROPAFENONE], for which the IC50 result is recorded as “Not Active” and the Ki entry is “Not Active”.
`CCCOc1ccc(C(=O)OCCN(CC)CC)cc1N` [PROPARACAINE]: the IC50 result is listed as “Not Active” and the Ki result is “Not Active”.

Test system in another experiment: not listed separately
Put plainly: DRUGMATRIX: Glutamate, NMDA, Agonism radioligand binding (ligand: [3H] CGP-39653). Format: cell membranes, Rattus norvegicus, Wistar, Cerebral cortex, Membrane. To be noted: Not Active = under 50% inhibition at 10 µM.
Turning to `CC(C)NCC(O)COc1cccc2[nH]ccc12` (stereo not drawn) [PINDOLOL], the IC50 result was “Not Active” and the Ki result is on record as “Not Active”.
For the compound `CCn1cc(C(=O)O)c(=O)c2cnc(N3CCCC3)nc21` [PIROMIDIC ACID], the IC50 entry was “Not Active” and the Ki entry is listed as “Not Active”.
Consider `C[n+]1ccccc1/C=N/O.[Cl-]` [PRALIDOXIME CHLORIDE], for which the IC50 result is given as “Not Active” and the Ki result is “Not Active”.
Turning to `C[C@]12C=CC(=O)C=C1CC[C@@H]1[C@@H]2[C@@H](O)C[C@@]2(C)[C@H]1CC[C@]2(O)C(=O)CO` [PREDNISOLONE], the IC50 entry is on record as “Not Active” and the Ki result is listed as “Not Active”.
On to `CC(=O)[C@H]1[C@H](C#N)C[C@H]2[C@@H]3CC=C4C[C@@H](O)CC[C@]4(C)[C@H]3CC[C@@]21C` [PREGNENOLONE CARBONITRILE], for which the IC50 entry was “Not Active” and the Ki entry is listed as “Not Active”.
On to `CCCN(CCC)S(=O)(=O)c1ccc(C(=O)O)cc1` [PROBENECID], for which the IC50 result was “Not Active” and the Ki result is recorded as “Not Active”.
On to `CCCNCC(O)COc1ccccc1C(=O)CCc1ccccc1` (stereo not drawn) [PROPAFENONE], for which the IC50 result is listed as “Not Active” and the Ki entry was “Not Active”.
Consider `CCCOc1ccc(C(=O)OCCN(CC)CC)cc1N` [PROPARACAINE], for which the IC50 result is recorded as “Not Active” and the Ki entry is recorded as “Not Active”.

In another experiment the target is T2, Cysteinyl leukotriene receptor 1 (Homo sapiens, UniProt Q9Y271). Further: in other assays of this panel Not Active means under 50% inhibition at 10 µM.
T2 sequence (Q9Y271 whole entry): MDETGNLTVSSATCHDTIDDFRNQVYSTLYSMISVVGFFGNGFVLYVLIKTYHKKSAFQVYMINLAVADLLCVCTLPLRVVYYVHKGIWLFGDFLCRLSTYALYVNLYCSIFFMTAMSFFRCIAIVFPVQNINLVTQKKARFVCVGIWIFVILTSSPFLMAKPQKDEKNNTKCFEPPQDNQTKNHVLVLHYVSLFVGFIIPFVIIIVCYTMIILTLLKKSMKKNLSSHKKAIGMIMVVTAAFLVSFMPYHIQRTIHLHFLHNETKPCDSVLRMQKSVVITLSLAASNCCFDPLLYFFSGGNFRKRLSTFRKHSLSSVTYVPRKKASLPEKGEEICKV
Assay: not given
Format: cell membranes, Membrane. As to conditions: cho-k1.
As for `CC(C)NCC(O)COc1cccc2[nH]ccc12` (stereo not drawn) [PINDOLOL], the IC50 result is recorded as “Not Active”.
On to `CCn1cc(C(=O)O)c(=O)c2cnc(N3CCCC3)nc21` [PIROMIDIC ACID], for which the IC50 entry is on record as “Not Active”.
On the same count and under the same terms, the same measure for `C[n+]1ccccc1/C=N/O.[Cl-]` [PRALIDOXIME CHLORIDE]: “Not Active”.
With `C[C@]12C=CC(=O)C=C1CC[C@@H]1[C@@H]2[C@@H](O)C[C@@]2(C)[C@H]1CC[C@]2(O)C(=O)CO` [PREDNISOLONE], the IC50 entry was “Not Active”.
On the same count and under the same terms, the same measure for `CC(=O)[C@H]1[C@H](C#N)C[C@H]2[C@@H]3CC=C4C[C@@H](O)CC[C@]4(C)[C@H]3CC[C@@]21C` [PREGNENOLONE CARBONITRILE]: “Not Active”.
Turning to `CCCN(CCC)S(=O)(=O)c1ccc(C(=O)O)cc1` [PROBENECID], the IC50 result is “Not Active”.
Take `CCCNCC(O)COc1ccccc1C(=O)CCc1ccccc1` (stereo not drawn) [PROPAFENONE]: the IC50 result was “Not Active”.
On to `CCCOc1ccc(C(=O)OCCN(CC)CC)cc1N` [PROPARACAINE], for which the IC50 result is “Not Active”.

Test system in another experiment: not listed separately
Put plainly: DRUGMATRIX: Purinergic P2X radioligand binding (ligand: [3H] alpha, beta-Methylene-ATP). To be noted: Not Active = under 50% inhibition at 10 µM. Format: cell membranes, Oryctolagus cuniculus, New Zealand albino, Urinary bladder, Membrane.
For `CC(C)NCC(O)COc1cccc2[nH]ccc12` (stereo not drawn) [PINDOLOL], the IC50 result was “Not Active” and the Ki result is “Not Active”.
Turning to `CCn1cc(C(=O)O)c(=O)c2cnc(N3CCCC3)nc21` [PIROMIDIC ACID], the IC50 entry was “Not Active” and the Ki entry is recorded as “Not Active”.
In the case of `C[n+]1ccccc1/C=N/O.[Cl-]` [PRALIDOXIME CHLORIDE], the IC50 result was “Not Active” and the Ki entry is “Not Active”.
Consider `C[C@]12C=CC(=O)C=C1CC[C@@H]1[C@@H]2[C@@H](O)C[C@@]2(C)[C@H]1CC[C@]2(O)C(=O)CO` [PREDNISOLONE], for which the IC50 entry is “Not Active” and the Ki result is recorded as “Not Active”.
Take `CC(=O)[C@H]1[C@H](C#N)C[C@H]2[C@@H]3CC=C4C[C@@H](O)CC[C@]4(C)[C@H]3CC[C@@]21C` [PREGNENOLONE CARBONITRILE]: the IC50 entry was “Not Active” and the Ki result is listed as “Not Active”.
On to `CCCN(CCC)S(=O)(=O)c1ccc(C(=O)O)cc1` [PROBENECID], for which the IC50 entry is given as “Not Active” and the Ki entry is “Not Active”.
With `CCCNCC(O)COc1ccccc1C(=O)CCc1ccccc1` (stereo not drawn) [PROPAFENONE], the IC50 entry is given as “Not Active” and the Ki entry is on record as “Not Active”.
Turning to `CCCOc1ccc(C(=O)OCCN(CC)CC)cc1N` [PROPARACAINE], the IC50 entry is “Not Active” and the Ki entry is “Not Active”.

Source of the values: ChEMBL document CHEMBL1909046, “DrugMatrix in vitro pharmacology data”.
